According to patent US10071976B2, “Small molecule fatty acid synthase inhibitors” (Sanford Burnham Prebys Medical Discovery Institute, priority 2014, dated 2018):
Like-named read-outs stand apart in the source and are kept apart here.

Tests used:
PAMPA permeability = format: in vitro ADME; conditions: for Papp: PAMPA, read-out: PAMPA Permeability, Pe
Procedure: The PAMPA (Parallel Artificial Membrane Permeability Assay) assay was used as an in vitro model of passive, transcellular permeability. An artificial membrane immobilized on a filter was placed between a donor and acceptor compartment. At the start of the test, drug was introduced in the donor compartment. Following the permeation period, the concentration of drug in the donor and acceptor compartments was measured using UV spectroscopy.

[1] = Plasma protein binding, mouse; format: in vitro ADME; conditions: read-out: Plasma Protein Binding (% Bound) (converted)
Source text: Plasma protein binding was a measure of a drug's efficiency to bind to the proteins within blood plasma. The less bound a drug is, the more efficiently it can traverse cell membranes or diffuse. […] In contrast, drugs that remain largely unbound in plasma are generally available for distribution to other organs and tissues.

FASN-TE = FASN-TE (Homo sapiens, UniProt P49327); assay: In-vitro biochemical assay measuring FAS-TE inhibition (OMFH substrate, fluorescence)
Chain of FASN-TE (P49327 2207-2511 limits assumed): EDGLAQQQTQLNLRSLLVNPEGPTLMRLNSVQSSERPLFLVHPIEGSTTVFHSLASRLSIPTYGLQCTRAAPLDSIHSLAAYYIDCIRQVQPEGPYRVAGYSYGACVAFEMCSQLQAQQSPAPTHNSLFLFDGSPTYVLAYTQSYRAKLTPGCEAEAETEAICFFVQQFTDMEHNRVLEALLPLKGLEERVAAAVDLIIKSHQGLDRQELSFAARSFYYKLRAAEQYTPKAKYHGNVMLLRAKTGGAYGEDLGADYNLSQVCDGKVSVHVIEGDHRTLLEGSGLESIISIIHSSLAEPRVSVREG
Procedure: Min wells: Substrate+No enzyme+DMSO, Max wells: Substrate+Enzyme+DMSO, Sample wells: Substrate+Enzyme+Test compounds, Reference compound: Orlistat (make a fresh 10 mM stock in DMSO each time). 384-well black, low-volume plate (Greiner #784076)
Assay Protocol: • 1) ECHO transfer 160 nL of 125× Compound (or DMSO for control wells) per well. • 2) For Max and Sample wells: Add 10 μL of Enzyme (2×; 1.8 μM) prepared in RXN Buffer. For Min wells: Add 10 μL of RXN Buffer (No Enzyme). • 3) For all wells: Add 10 μL of Substrate (2×; 20 μM) prepared in diH2O+10% DMSO. • 4) Centrifuge plate for 1 minute at 1,000 rpm. • 5) Measure fluorescence every 5 minutes for 1-1.5 hours using the BMG POLARstar (ex 485 nm/em 520 nm; Gain=1015; 25 flashes). • 6) All volumes can be adjusted but the final DMSO concentration should be kept at about 6%.
Data Analysis: • 1) Calculate slopes and express as % Activity (Min wells=0%; Max wells=100%). • 2) Then, using Prism, calculate the IC50 values.

FASN thioesterase = molecular target: T1, FASN thioesterase (Homo sapiens, UniProt P49327); assay: FP-PEG-TAMRA labeling of recombinant FASN thioesterase; format: binding; conditions: recombinant enzyme, 20 μM final, pH 7.8
T1 construct: label the active site of the FASN thioesterase and ACOT4
T1 sequence (P49327 2207-2511 limits assumed): as above
Procedure: Additionally, studies were performed to test the selectivity of Compounds 1, 16, 22, and 37 for the FASN thioesterase over its most closely related human homolog, the enzyme called ACOT4 (see FIG. 3). Both proteins were mixed and pretreated with the compound (20 μM final, pH 7.8) before addition of the fluorescent activity probe FP-PEG-TAMRA. Respective fluorescence of the bands was detected on a Hitachi flatbed scanner and a greyscale version used for quantitative analysis using ImageJ. Recombinant forms of each enzyme were incubated with compound 16, compound 1, compound 37, and compound 22. FP-TAMRA was included in this mixture to label the active site of the FASN thioesterase and ACOT4. […] These findings further attest to the high degree of selectivity of compounds 1, 16, 37 and 22 for the FASN thioesterase.

**Q.** For `CCC(CC)C(=O)Nc1nc(-c2ccc(S(=O)(=O)N3CCOCC3)cc2)cs1` [Compound 16, 2-Ethyl-N-(4-(4-(morpholinosulfonyl)phenyl)thiazol-2-yl)butanamide], which Papp (PAMPA permeability; Donor pH 5.0, Acceptor pH 7.4) is on record?
**A.** The Papp was 914 ×10⁻⁶ cm/s.

**Q.** What about the Papp (PAMPA permeability; Donor pH 6.2, Acceptor pH 7.4) of the same compound?
**A.** Its Papp is 961 ×10⁻⁶ cm/s.

**Q.** What about the Papp (PAMPA permeability; pH 7.4, Donor pH 7.4, Acceptor pH 7.4) of the same compound?
**A.** The Papp was 653 ×10⁻⁶ cm/s.

**Q.** What about the “PAMPA permeability” value (PAMPA permeability; across a range of pH of the donor compartment) of the same compound?
**A.** Its value is “very good permeability”.

**Q.** And the fraction unbound at 1 μM ([1]; 1 μM)?
**A.** The fraction unbound at 1 μM was 0.0381.

**Q.** And the fraction unbound at 10 μM ([1]; 10 μM)?
**A.** Its fraction unbound at 10 μM is 0.0337.

**Q.** What about the IC50 (FASN-TE) of the same compound?
**A.** Its IC50 is 334 nM.

**Q.** And the “binding of FP-TAMRA to the active site of the FASN thioesterase” value (FASN thioesterase)?
**A.** Its value is “blocked the binding of FP-TAMRA”.
